Measurements reported in the NIST ThermoML archive (doi:10.1021/acs.jced.5b00552).
Numbers after ± are expanded uncertainties.

Experiment: xn = mol fraction of the nth substance listed
Conditions: 100 kPa, Liquid, Vibrating tube method

Cc1ncc(CO)c(CO)c1O.Cl [5-hydroxy-6-methyl-3,4-pyridinedimethanol hydrochloride] + O
Conditions	mass density [kg/m3]
293.15 K, x1 = 0.01626	1093.5 ± 6.3
298.15 K, x1 = 0.01886	1104.7 ± 6.4
303.15 K, x1 = 0.02222	1111 ± 6.5
308.15 K, x1 = 0.02522	1120.8 ± 6.6
313.15 K, x1 = 0.02666	1133.3 ± 7
318.15 K, x1 = 0.02818	1141.5 ± 6.8
323.15 K, x1 = 0.0329	1154.6 ± 7.1
